pIC50: −log10 of the molar value. “Also recorded” adds a separate entry of the source.
Key:
sodium channel site 2 = conditions: screening profile; cited from earlier work
Aβ25-35 treated mice [1] = experiment: combination studies in the Aβ25-35 model in mice, all parameters examined; assay type: in vivo, Male Swiss OF-1 mice; conditions: for minimal active dose: each drug, Aβ25-35 model in mice, ip; for efficacy of the drug alone in the combination studies with memantine: single drug, once 20 min before Aβ25-35
Procedure: (a) Administration schedule, (b) Y-maze test; (c) passive avoidance response. Administration schedule: mice received ANAVEX2-73 (0.1, 0.3 mg/kg i.p.) and/or donepezil (0.25, 0.5 mg/kg i.p.) once 20 min before Aβ25-35 (9 nmol i.c.v.) at day 0. Animals were examined between days 7 and 9.
(a) Administration schedule, (b) Y-maze test; (c) passive avoidance response. Administration schedule: mice received ANAVEX2-73 (0.1, 0.3 mg/kg i.p.) and/or memantine (0.5, 1 mg/kg i.p.) once 20 min before Aβ25-35 (9 nmol i.c.v.) at day 0. Animals were examined between days 7 and 9.
The spontaneous alternation (YMT) and passive avoidance (PAT) responses are shown. […] The 100% protection level represents the Sc.Aβ/V group and the 0% level, the Aβ25-35/V group. Only the data with the lowest doses tested are shown.
(§1) Male Swiss OF-1 mice (Depré, St Doulchard, France), aged 7-9 weeks and weighing 32±2 g were used in this study. Animals were housed in plastic cages in groups. They had free access to food and water, except during behavioral experiments, and they were kept in a regulated environment (23±1° C., 40-60% humidity) under a 12 h light/dark cycle (light on at 07:00 am). Experiments were carried out between 09:00 am and 05:00 pm, in an experimental room within the animal facility. Mice were habituated 30 min before each experiment. Animal procedures were conducted in adherence with the EU Directive 86-609.
(§2) Donepezil (E2020) was from Eisai Tsukuba Research Laboratories (Tsukuba, Japan) and memantine was from Sigma-Aldrich (St Quentin-Fallavier, France). Drugs were solubilized in physiological saline solution and administered intraperitoneally (i.p.) in a volume of 100 μl per 20 g body weight. […] (Aβ25-35) and scrambled β25-35 (Sc.Aβ) peptides from Genepep (France) were solubilized in distilled water at 3 mg/ml and stored at 20° C. until use. Peptides were aged at 37° C. for 4 days and injected i.c.v. (3 μl per mouse).
(§3) Spatial working memory was examined through the measure of spontaneous alternation performance in the Y-maze. Animals were allowed to explore the Y-shaped maze during 8 min and the number of alternations (consecutive exploration of the 3 arms) and total number of arms entered was recorded.
(§4) Contextual long-term memory was measured using the step-through type passive avoidance test. During training, animals were placed in the white compartment of the two-compartment apparatus. The step-through latency to enter the dark compartment was recorded and mice received an electric shock (0.1 mA, 3 s). During the retention session, performed 24 h after training, the step-through latency to enter the dark compartement and escape latency, to re-exit, were recorded.

σ2 sites = σ2 sites (Homo sapiens, UniProt Q5BJF2); conditions: reported binding analyses; cited from earlier work
Sequence of σ2 sites (Q5BJF2 whole entry): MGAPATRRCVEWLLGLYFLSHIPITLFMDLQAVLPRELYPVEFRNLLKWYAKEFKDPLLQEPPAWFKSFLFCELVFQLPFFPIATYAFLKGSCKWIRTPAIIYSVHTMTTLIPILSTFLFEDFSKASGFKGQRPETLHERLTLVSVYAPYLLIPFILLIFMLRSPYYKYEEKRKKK

[2] = system: muscarinic M1-M4 receptors; conditions: cited from earlier work
Aβ25-35 treated mice [3] = conditions: cited from earlier work
Aβ25-35 treated mice [4] = experiment: lipid peroxidation in the hippocampus, Aβ25-35 treated mice; assay type: in vivo, Male Swiss OF-1 mice; conditions: hydrochloride
Procedure: Administration schedule: mice received ANAVEX2-73 (0.1-1 mg/kg i.p.) once-a-day between days −7 and −1 and Aβ25-35 (9 nmol i.c.v.) at day 0. Animals were examined between days 7 and 9. Their brain dissected out and assessed for lipid peroxidation (LPO) at day 10.
Administration schedule: mice received Aβ25-35 (9 nmol i.c.v.) at day 0 and ANAVEX2-73 (0.1, 0.3 mg/kg i.p.) once-a-day between days 7 and 13. Animals were examined between days 14 and 16. Their brain dissected out and assessed for lipid peroxidation (LPO) at day 17.
as §1
Tetrahydro-N,N-dimethyl-2,2-diphenyl-3-furanmethanamine hydrochloride (ANAVEX2-73) was synthesized in the laboratory (Anavex Life Sciences, Greece). […] Drugs were solubilized in physiological saline solution and administered intraperitoneally (i.p.) in a volume of 100 μl per 20 g body weight. The amyloid-β[25-35] (Aβ25-35) and scrambled β25-35 (Sc.Aβ) peptides from Genepep (France) were solubilized in distilled water at 3 mg/ml and stored at 20° C. until use. Peptides were aged at 37° C. for 4 days and injected i.c.v. (3 μl per mouse).
Mouse hippocampus was homogenized in cold methanol, centrifuged at 1,000 g 5 min and supernatant collected. Homogenate was added to a solution of FeSO4 1 mM, H2SO4 0.25 M, xylenol orange 1 mM and incubated for 30 min at RT. Absorbance was measured at 580 nm (A5801), and 10 μl of cumene hydroperoxide (CHP) 1 mM was added and incubated for 30 min at RT. Absorbance was measured at 580 nm (A5802). Lipid peroxidation was determined as CHP equivalents: CHP eq.=A5801/A5802×[CHP (nmol)]×dilution, and expressed as percentage of the Sc.Aβ/V-treated group value.

Aβ25-35 treated mice [5] = experiment: spontaneous alternation in the Y-maze, Aβ25-35 treated mice; assay type: in vivo, Male Swiss OF-1 mice; conditions: hydrochloride
Procedure: Administration schedule: mice received ANAVEX2-73 (0.1-1 mg/kg i.p.) once-a-day between days −7 and −1 and Aβ25-35 (9 nmol i.c.v.) at day 0. Animals were examined between days 7 and 9.
Administration schedule: mice received Aβ25-35 (9 nmol i.c.v.) at day 0 and ANAVEX2-73 (0.1, 0.3 mg/kg i.p.) once-a-day between days 7 and 13. Animals were examined between days 14 and 16.
Administration schedule: mice received ANAVEX2-73 (0.1, 0.3 mg/kg i.p.) and/or donepezil (0.25, 0.5 mg/kg i.p.) once 20 min before Aβ25-35 (9 nmol i.c.v.) at day 0. Animals were examined between days 7 and 9.
Administration schedule: mice received ANAVEX2-73 (0.1, 0.3 mg/kg i.p.) and/or memantine (0.5, 1 mg/kg i.p.) once 20 min before Aβ25-35 (9 nmol i.c.v.) at day 0. Animals were examined between days 7 and 9.
as §1
Donepezil (E2020) was from Eisai Tsukuba Research Laboratories (Tsukuba, Japan) and memantine was from Sigma-Aldrich (St Quentin-Fallavier, France). Drugs were solubilized in physiological saline solution and administered intraperitoneally (i.p.) in a volume of 100 μl per 20 g body weight. The amyloid-β[25-35] (Aβ25-35) and scrambled β25-35 (Sc.Aβ) peptides from Genepep (France) were solubilized in distilled water at 3 mg/ml and stored at 20° C. until use. Peptides were aged at 37° C. for 4 days and injected i.c.v. (3 μl per mouse).
as §3

σ1 = σ1 (Homo sapiens, UniProt Q99720); conditions: believed to bind; cited from earlier work
Sequence of σ1 (Q99720 whole entry): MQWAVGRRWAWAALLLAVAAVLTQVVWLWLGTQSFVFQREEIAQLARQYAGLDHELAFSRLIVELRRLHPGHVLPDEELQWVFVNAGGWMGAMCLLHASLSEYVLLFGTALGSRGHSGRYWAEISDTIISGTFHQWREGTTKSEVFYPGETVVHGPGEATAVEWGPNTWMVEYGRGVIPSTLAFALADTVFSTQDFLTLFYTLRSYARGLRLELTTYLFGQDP

Aβ25-35 treated mice [6] = experiment: step-through passive avoidance, Aβ25-35 treated mice; assay type: in vivo, Male Swiss OF-1 mice; conditions: hydrochloride
Procedure: as §1, §2, §4

[7] = administered before the Aβ25-35 peptide
[8] = mice one week after icv Aβ25-35 (Villard et al. 2011)
[9] = delayed administration: 0.3 mg/kg ip (FIG. 2: 0.1, 0.3) once a day day 7 to 13 after Aβ25-35, measured 14 days after Aβ25-35, 0.3 mg/kg
[10] = early administration: 0.1, 0.3 mg/kg ip (FIG. 1: 0.1-1) once a day day -7 to -1 before Aβ25-35 (day 0), 7 days after Aβ25-35

For `CN(C)CC1CCOC1(c1ccccc1)c1ccccc1.Cl` (stereo not shown) [ANAVEX2-73, Tetrahydro-N,N-dimethyl-2,2-diphenyl-3-furanmethanamine hydrochloride], the pIC50 (sodium channel site 2) is listed as 5.29, the minimal active dose (Aβ25-35 treated mice [1]) is listed as 0.1 mg/kg and the “efficacy of the drug alone in the combination studies with memantine” value (Aβ25-35 treated mice [1]) is listed as “therapeutic efficacy”. For the same molecule, the “affinity for σ2 sites” value (σ2 sites) was “no affinity”, the “affinity for muscarinic acetylcholine receptors” value ([2]; believed to bind) was “low micromolar range” and the pIC50 ([2]; screening profile, range over M1-M4) was 5.28 to 5.48. For the same molecule, the “Aβ25-35-induced P-Akt decrease” value (Aβ25-35 treated mice [3]; Lahmy et al. 2013) was “blocked”, the “Aβ25-35-induced P-GSK-3β increase” value (Aβ25-35 treated mice [3]; Lahmy et al. 2013) was “blocked” and the “dose preventing hippocampal cell loss” value (Aβ25-35 treated mice [3]; [7]) was 0.3 to 1 mg/kg. For the same molecule, the “dose preventing oxidative stress” value (Aβ25-35 treated mice [3]; [7]) was 0.3 to 1 mg/kg, the “dose preventing the appearance of Aβ25-35-induced learning deficits” value (Aβ25-35 treated mice [3]; [7]) was 0.03 mg/kg and the “hyperphosphorylation of Tau on pathological epitopes (AT-100 clone)” value (Aβ25-35 treated mice [3]; in the dose-range tested) was “attenuated”. The “hyperphosphorylation of Tau on physiological epitopes (AT-8 antibody clone)” value (Aβ25-35 treated mice [3]; in the dose-range tested) was “attenuated”, the caspases induction (Aβ25-35 treated mice [3]; [8]) was “attenuating” and the cellular loss (Aβ25-35 treated mice [3]; [8]) was “attenuating”. The “learning and memory deficits” value (Aβ25-35 treated mice [3]; [8]) was “attenuating”, the oxidative stress (Aβ25-35 treated mice [3]; [8]) was “attenuating” and the “Aβ25-35-induced endogenous Aβ1-42 seeding” value (Aβ25-35 treated mice [3]; mouse, in vivo) was “decreasing”. The “reversing the learning impairments” value (Aβ25-35 treated mice [3]; one week after icv injection of Aβ25-35 peptide) was “effective”, the “Aβ25-35-induced lipid peroxidation increase (toxicity)” value (Aβ25-35 treated mice [4]; [9]) was “significant attenuations; also recorded: effective” and the “Aβ25-35-induced lipid peroxidation in the hippocampus (toxicity)” value (Aβ25-35 treated mice [4]; [10]) was “significantly prevented; also recorded: blocked”. For the same molecule, the “Aβ25-35-induced memory deficits, spontaneous alternation in the Y maze” value (Aβ25-35 treated mice [5]; [9]) was “significant attenuations; also recorded: effective”, the “Aβ25-35-induced memory deficits, spontaneous alternation in the Y maze” value (Aβ25-35 treated mice [5]; [10]) was “significantly prevented; also recorded: blocked” and the “affinity for sigma-1 receptors” value (σ1) was “low micromolar range”. The “Aβ25-35-induced memory deficits, passive avoidance response” value (Aβ25-35 treated mice [6]; [9]) was “significant attenuations; also recorded: effective” and the “Aβ25-35-induced memory deficits, passive avoidance response” value (Aβ25-35 treated mice [6]; [10]) was “significantly prevented; also recorded: blocked”.
For `CC12CC3CC(C)(C1)CC(N)(C3)C2` [memantine, Memantine, reference compound], the “efficacy of the drug alone in the combination studies with memantine” value (Aβ25-35 treated mice [1]) was “therapeutic efficacy”.
Donepezil [reference compound] showed a minimal active dose (Aβ25-35 treated mice [1]) of 0.25 mg/kg.
